{
  "source": "paper PMC4979471",
  "about": "(Cell Death Discovery, 2015)",
  "test_in_all_cases": "Kinase selectivity, P33-radiolabeled assay",
  "assay_type_in_all_cases": "biochemical",
  "conditions_in_all_cases": "10 μM ATP",
  "key": {"[1]": {"biological_target": "T1, ALK4/ACVR1B (Homo sapiens, UniProt P36896)", "T1 construct": "purchased Reaction Biology Corp", "T1 sequence (P36896 24-505)": "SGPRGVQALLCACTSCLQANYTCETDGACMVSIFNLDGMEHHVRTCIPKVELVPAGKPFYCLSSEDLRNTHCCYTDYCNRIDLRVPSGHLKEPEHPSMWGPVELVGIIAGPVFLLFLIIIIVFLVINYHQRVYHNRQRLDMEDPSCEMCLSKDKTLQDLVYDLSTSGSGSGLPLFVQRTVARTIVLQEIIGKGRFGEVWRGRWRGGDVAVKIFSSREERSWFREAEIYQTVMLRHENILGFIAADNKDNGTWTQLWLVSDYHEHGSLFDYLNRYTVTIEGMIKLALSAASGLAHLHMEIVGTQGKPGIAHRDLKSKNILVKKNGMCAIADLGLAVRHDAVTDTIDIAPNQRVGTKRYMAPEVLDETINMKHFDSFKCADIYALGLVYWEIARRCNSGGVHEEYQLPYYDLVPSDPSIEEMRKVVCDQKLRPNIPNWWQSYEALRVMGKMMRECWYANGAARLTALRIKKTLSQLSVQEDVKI", "outline": "(§1)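 Percent residual kinase activity versus DMSO is reported. Conditions: compound at 10 μM, ATP at 10 μM, n = 2.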"}, "[2]": {"biological_target": "T2, PKCzeta (Homo sapiens, UniProt Q05513)", "T2 construct": "purchased Reaction Biology Corp", "T2 sequence (Q05513 1-592)": "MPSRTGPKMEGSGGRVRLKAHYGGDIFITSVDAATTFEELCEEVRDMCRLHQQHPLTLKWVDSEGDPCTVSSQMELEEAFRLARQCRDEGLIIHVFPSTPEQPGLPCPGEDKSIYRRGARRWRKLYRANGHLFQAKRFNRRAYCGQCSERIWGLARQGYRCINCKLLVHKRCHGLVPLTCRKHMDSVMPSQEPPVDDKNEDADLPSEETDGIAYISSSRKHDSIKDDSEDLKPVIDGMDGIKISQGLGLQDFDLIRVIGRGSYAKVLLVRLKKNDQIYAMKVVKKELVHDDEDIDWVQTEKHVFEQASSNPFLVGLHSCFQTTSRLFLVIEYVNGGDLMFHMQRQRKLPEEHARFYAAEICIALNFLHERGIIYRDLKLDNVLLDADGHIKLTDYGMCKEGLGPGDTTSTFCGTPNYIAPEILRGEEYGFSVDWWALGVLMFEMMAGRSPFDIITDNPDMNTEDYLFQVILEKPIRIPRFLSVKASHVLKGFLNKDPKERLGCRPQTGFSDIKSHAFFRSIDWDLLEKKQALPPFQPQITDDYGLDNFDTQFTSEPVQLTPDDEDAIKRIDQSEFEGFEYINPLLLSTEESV", "outline": "as §1"}, "[3]": {"biological_target": "T3, SRPK1 (Homo sapiens, UniProt Q96SB4)", "T3 construct": "purchased Reaction Biology Corp", "T3 sequence (Q96SB4 whole entry)": "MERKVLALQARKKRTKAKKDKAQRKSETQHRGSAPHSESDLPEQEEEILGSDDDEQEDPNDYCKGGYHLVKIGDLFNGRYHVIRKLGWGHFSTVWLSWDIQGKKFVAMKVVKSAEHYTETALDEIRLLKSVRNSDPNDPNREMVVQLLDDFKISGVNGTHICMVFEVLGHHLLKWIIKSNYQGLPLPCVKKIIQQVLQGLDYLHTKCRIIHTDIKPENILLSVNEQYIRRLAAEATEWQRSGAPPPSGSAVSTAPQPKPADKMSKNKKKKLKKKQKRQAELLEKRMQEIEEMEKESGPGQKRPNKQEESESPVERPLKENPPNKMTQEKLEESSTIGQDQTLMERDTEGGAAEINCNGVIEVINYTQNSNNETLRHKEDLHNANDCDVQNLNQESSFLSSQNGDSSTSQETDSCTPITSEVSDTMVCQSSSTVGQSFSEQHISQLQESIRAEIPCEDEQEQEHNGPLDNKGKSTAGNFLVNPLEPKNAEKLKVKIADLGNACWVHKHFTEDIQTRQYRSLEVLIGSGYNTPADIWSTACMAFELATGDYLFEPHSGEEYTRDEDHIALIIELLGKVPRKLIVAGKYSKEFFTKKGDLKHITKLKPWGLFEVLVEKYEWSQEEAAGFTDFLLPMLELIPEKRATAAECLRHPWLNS", "outline": "as §1"}, "[4]": {"biological_target": "T4, c-MER (Homo sapiens, UniProt Q12866)", "T4 construct": "purchased Reaction Biology Corp", "T4 sequence (Q12866 21-999)": "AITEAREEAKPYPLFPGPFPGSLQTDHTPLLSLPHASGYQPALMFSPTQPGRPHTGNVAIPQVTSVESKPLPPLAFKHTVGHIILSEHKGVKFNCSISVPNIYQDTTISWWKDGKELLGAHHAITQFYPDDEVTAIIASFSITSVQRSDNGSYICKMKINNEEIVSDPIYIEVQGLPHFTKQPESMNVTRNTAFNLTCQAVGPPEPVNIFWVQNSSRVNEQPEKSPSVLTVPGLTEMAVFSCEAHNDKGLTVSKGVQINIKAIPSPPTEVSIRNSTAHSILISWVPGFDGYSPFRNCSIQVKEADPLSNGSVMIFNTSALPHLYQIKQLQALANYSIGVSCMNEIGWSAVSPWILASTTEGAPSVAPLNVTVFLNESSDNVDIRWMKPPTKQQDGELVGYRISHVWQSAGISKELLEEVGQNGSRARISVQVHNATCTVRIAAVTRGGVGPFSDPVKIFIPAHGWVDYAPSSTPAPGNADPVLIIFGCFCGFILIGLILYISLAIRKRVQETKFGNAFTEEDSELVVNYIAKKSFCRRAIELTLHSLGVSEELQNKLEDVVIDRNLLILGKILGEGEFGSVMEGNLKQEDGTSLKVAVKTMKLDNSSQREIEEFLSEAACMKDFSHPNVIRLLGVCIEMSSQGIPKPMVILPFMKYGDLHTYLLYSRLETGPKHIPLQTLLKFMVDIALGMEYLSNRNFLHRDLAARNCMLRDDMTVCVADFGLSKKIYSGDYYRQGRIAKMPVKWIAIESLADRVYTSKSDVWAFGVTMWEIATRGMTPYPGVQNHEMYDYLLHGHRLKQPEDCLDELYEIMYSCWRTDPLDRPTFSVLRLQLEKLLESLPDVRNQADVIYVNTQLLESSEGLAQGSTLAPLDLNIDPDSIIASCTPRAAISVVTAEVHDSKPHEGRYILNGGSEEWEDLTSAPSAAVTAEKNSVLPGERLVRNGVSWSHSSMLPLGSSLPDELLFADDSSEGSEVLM", "outline": "as §1"}, "[5]": {"conditions": "read-out: % Enzyme Activity (relative to DMSO controls) AVG"}, "[6]": {"conditions": "read-out: % Enzyme Activity (relative to DMSO controls) Data 1"}, "[7]": {"conditions": "read-out: % Enzyme Activity (relative to DMSO controls) Data 2"}},
  "note": "Read-outs that look alike come from different tables or passages of the source.",
  "data": [
    {"smiles": "CC(C)(C)C(=O)N1N=CC[C@H]1c1ccccc1", "note": "[GSK′963]", "values": [
      {"measurement": "remaining activity at 10 µM", "setting": "[1]; [5]", "result": 103, "unit": "%"},
      {"measurement": "remaining activity at 10 µM", "setting": "[1]; [6]", "result": 104, "unit": "%"},
      {"measurement": "remaining activity at 10 µM", "setting": "[1]; [7]", "result": 102, "unit": "%"},
      {"measurement": "remaining activity at 10 µM", "setting": "[2]; [5]", "result": 105, "unit": "%"},
      {"measurement": "remaining activity at 10 µM", "setting": "[2]; [6]", "result": 105, "unit": "%"},
      {"measurement": "remaining activity at 10 µM", "setting": "[2]; [7]", "result": 105, "unit": "%"},
      {"measurement": "remaining activity at 10 µM", "setting": "[3]; [5]", "result": 97.7, "unit": "%"},
      {"measurement": "remaining activity at 10 µM", "setting": "[3]; [6]", "result": 93.2, "unit": "%"},
      {"measurement": "remaining activity at 10 µM", "setting": "[3]; [7]", "result": 102, "unit": "%"},
      {"measurement": "remaining activity at 10 µM", "setting": "[4]; [5]", "result": 94.8, "unit": "%"},
      {"measurement": "remaining activity at 10 µM", "setting": "[4]; [6]", "result": 94.5, "unit": "%"},
      {"measurement": "remaining activity at 10 µM", "setting": "[4]; [7]", "result": 95.1, "unit": "%"}
    ]}
  ]
}
